Test results from patent US12528814B2, “Bifunctional degraders of interleukin-1 receptor-associated kinases and therapeutic use thereof” (NURIX THERAPEUTICS, INC., priority 2020, dated 2026).
Like-named read-outs stand apart in the source and are kept apart here.

Experiments:
IRAK4 [1] = biological target: T1, IRAK4 (Homo sapiens (Human), UniProt Q9NWZ3); experiment: IRAK4 Biochemical HTRF Kinase Assay; conditions: read-out: IRAK4 HTRF biochemical: IC50
Summary of the method: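 HTRF KinEASE STK S1 format measuring IRAK4 phosphorylation of biotinylated peptide; reaction solution of 5 μM STK-S1, 10 mM ATP, 10 mM MgCl2 added (stock, to 10 μl final), 90 min at ambient temperature, detection 60 min. IC50 from sixteen-point duplicate curves by non-linear regression.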
Target sequence in this assay (Q9NWZ3 whole entry, species assumed): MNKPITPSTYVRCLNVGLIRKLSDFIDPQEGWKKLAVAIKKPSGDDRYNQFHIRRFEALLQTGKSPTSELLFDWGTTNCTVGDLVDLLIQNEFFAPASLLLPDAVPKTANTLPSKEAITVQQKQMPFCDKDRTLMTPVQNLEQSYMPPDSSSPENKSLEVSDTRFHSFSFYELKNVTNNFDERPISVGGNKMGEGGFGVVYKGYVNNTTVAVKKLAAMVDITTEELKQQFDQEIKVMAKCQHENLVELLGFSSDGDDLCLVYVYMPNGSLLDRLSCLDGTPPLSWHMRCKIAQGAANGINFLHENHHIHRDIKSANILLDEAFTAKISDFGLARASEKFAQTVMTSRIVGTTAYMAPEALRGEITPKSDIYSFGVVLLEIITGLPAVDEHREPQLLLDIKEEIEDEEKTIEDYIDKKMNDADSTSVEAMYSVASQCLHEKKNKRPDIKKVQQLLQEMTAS

IRAK4 [2] = biological target: T1, IRAK4; experiment: IRAK4 Degradation HiBiT Assay; conditions: HiBiT-tagged Jurkat cells, 4 hrs; for Dmax: Jurkat; for DC50: read-out: Cellular IRAK4 HiBiT: DC50
Target sequence in this assay (Q9NWZ3 whole entry): as the sequence (Q9NWZ3 whole entry, species assumed) above

[3] = read-out: Cellular IRAK4 HiBiT: Dmax, Table 5, multiple runs
[4] = read-out: Cellular IRAK4 HiBiT: Dmax, Table 4

Compound	IC50 (IRAK4 [1]; Table 5, multiple runs)	Dmax (IRAK4 [2]; [3])	DC50 (IRAK4 [2]; Table 5, multiple runs)	IC50 (IRAK4 [1]; Table 4)	Dmax (IRAK4 [2]; [4])	DC50 (IRAK4 [2]; Table 4)
CNc1cc(-c2ccc3cc(C#N)cnn23)ncc1-c1nnc(N2CCC(NC(=O)COc3cc(-c4scnc4C)ccc3CNC(=O)[C@@H]3C[C@@H](O)CN3C(=O)[C@@H](NC(=O)C3(F)CC3)C(C)(C)C)CC2)s1 [Example 97, (2S,4R)—N-(2-(2-((1-(5-(6-(3-cyanopyrrolo[1,2-b]pyridazin-7-yl)-4-(methylamino)pyridin-3-yl)-1,3,4-thiadiazol-2-yl)piperidin-4-yl)amino)-2-oxoethoxy)-4-(4-methylthiazol-5-yl)benzyl)-1-((S)-2-(1-fluorocyclopropane-1-carboxamido)-3,3-dimethylbutanoyl)-4-hydroxypyrrolidine-2-carboxamide]	4.8 nM	59%	265 nM	–	–	–
CNc1cc(-c2ccc3cc(C#N)cnn23)ncc1-c1nnc(C23CCC(NC(=O)C[C@H](NC(=O)[C@@H]4C[C@@H](O)CN4C(=O)[C@@H](NC(=O)C4(F)CC4)C(C)(C)C)c4ccc(-c5scnc5C)cc4)(CC2)CC3)s1 [Example 140, (2S,4R)—N—((S)-3-((4-(5-(6-(3-cyanopyrrolo[1,2-b]pyridazin-7-yl)-4-(methylamino)pyridin-3-yl)-1,3,4-thiadiazol-2-yl)bicyclo[2.2.2]octan-1-yl)amino)-1-(4-(4-methylthiazol-5-yl)phenyl)-3-oxopropyl)-1-((S)-2-(1-fluorocyclopropane-1-carboxamido)-3,3-dimethylbutanoyl)-4-hydroxypyrrolidine-2-carboxamide]	2.3 nM	111%	88.9 nM	–	–	–
CNc1cc(-c2ccc3cc(C#N)cnn23)ncc1-c1nnc([C@H]2CC[C@@H](NC(=O)[C@H]3C[C@@H](OCCNc4cccc5c4C(=O)N(C4CCC(=O)NC4=O)C5=O)C3)CC2)s1 (stereo partly drawn) [Example 113, (1s,3S)—N-((1s,4S)-4-(5-(6-(3-cyanopyrrolo[1,2-b]pyridazin-7-yl)-4-(methylamino)pyridin-3-yl)-1,3,4-thiadiazol-2-yl)cyclohexyl)-3-(2-((2-(2,6-dioxopiperidin-3-yl)-1,3-dioxoisoindolin-4-yl)amino)ethoxy)cyclobutane-1-carboxamide]	1.2 nM	76%	32 nM	–	–	–
CNc1cc(-c2ccc3cc(C#N)cnn23)ncc1-c1nnc(N2CC3CCC(C2)N3C(=O)C[C@H](NC(=O)[C@@H]2C[C@@H](O)CN2C(=O)[C@@H](NC(=O)C2(F)CC2)C(C)(C)C)c2ccc(-c3scnc3C)cc2)s1 [Example 180, (2S,4R)—N-((1S)-3-(3-(5-(6-(3-cyanopyrrolo[1,2-b]pyridazin-7-yl)-4-(methylamino)pyridin-3-yl)-1,3,4-thiadiazol-2-yl)-3,8-diazabicyclo[3.2.1]octan-8-yl)-1-(4-(4-methylthiazol-5-yl)phenyl)-3-oxopropyl)-1-((S)-2-(1-fluorocyclopropane-1-carboxamido)-3,3-dimethylbutanoyl)-4-hydroxypyrrolidine-2-carboxamide]	0.5 nM	110%	91.6 nM	–	–	–
CNc1cc(-c2ccc3cc(C#N)cnn23)ncc1-c1nnc(N2CC3CCC(C2)N3C2CCN(C(=O)c3ccc4c(c3)C(=O)N(C3CCC(=O)NC3=O)C4)CC2)s1 (centres unmarked) [Example 162, 7-(5-(5-(8-(1-(2-(2,6-dioxopiperidin-3-yl)-3-oxoisoindoline-5-carbonyl)piperidin-4-yl)-3,8-diazabicyclo[3.2.1]octan-3-yl)-1,3,4-thiadiazol-2-yl)-4-(methylamino)pyridin-2-yl)pyrrolo[1,2-b]pyridazine-3-carbonitrile]	0.4 nM	110%	10.5 nM	–	–	–
CNc1cc(-c2ccc3cc(C#N)cnn23)ncc1-c1nnc([C@H]2CC[C@H](NC(=O)CC(C)(C)C(=O)N[C@H](C(=O)N3C[C@H](O)C[C@H]3C(=O)N[C@@H](C)c3ccc(-c4scnc4C)cc3)C(C)(C)C)CC2)s1 [Example 154, N4-((1r,4S)-4-(5-(6-(3-cyanopyrrolo[1,2-b]pyridazin-7-yl)-4-(methylamino)pyridin-3-yl)-1,3,4-thiadiazol-2-yl)cyclohexyl)-N1—((S)-1-((2S,4R)-4-hydroxy-2-(((S)-1-(4-(4-methylthiazol-5-yl)phenyl)ethyl)carbamoyl)pyrrolidin-1-yl)-3,3-dimethyl-1-oxobutan-2-yl)-2,2-dimethylsuccinamide]	2.8 nM	68%	544 nM	–	–	–
CNc1cc(-c2ccc3cc(C#N)cnn23)ncc1-c1nnc(N2CCN(C3CCN(C(=O)c4ccc(C(=O)NC5CCC(=O)NC5=O)cc4)CC3)CC2)s1 (centres unmarked) [Example 132, 4-(4-(4-(5-(6-(3-cyanopyrrolo[1,2-b]pyridazin-7-yl)-4-(methylamino)pyridin-3-yl)-1,3,4-thiadiazol-2-yl)piperazin-1-yl)piperidine-1-carbonyl)-N-(2,6-dioxopiperidin-3-yl)benzamide]	0.6 nM	–	> 9980 nM	–	–	–
CN[C@@H](C)C(=O)N[C@H](C(=O)N1C[C@@H](NC(=O)CCCCC(=O)N2CCN(c3nnc(-c4cnc(-c5ccc6cc(C#N)cnn56)cc4NC(C)C)s3)CC2)C[C@H]1C(=O)N[C@@H]1CCCc2ccccc21)C1CCCCC1 [Example 51, (2S,4S)-4-(6-(4-(5-(6-(3-cyanopyrrolo[1,2-b]pyridazin-7-yl)-4-(isopropylamino)pyridin-3-yl)-1,3,4-thiadiazol-2-yl)piperazin-1-yl)-6-oxohexanamido)-1-((S)-2-cyclohexyl-2-((S)-2-(methylamino)propanamido)acetyl)-N—((R)-1,2,3,4-tetrahydronaphthalen-1-yl)pyrrolidine-2-carboxamide]	2 nM	47%	502 nM	2 nM	48%	638 nM
CN[C@@H](C)C(=O)N[C@H](C(=O)N1C[C@@H](NC(=O)CCCCCCC(=O)N2CCN(c3nnc(-c4cnc(-c5ccc6cc(C#N)cnn56)cc4NC(C)C)s3)CC2)C[C@H]1C(=O)N[C@@H]1CCCc2ccccc21)C1CCCCC1 [Example 52, (2S,4S)-4-(8-(4-(5-(6-(3-cyanopyrrolo[1,2-b]pyridazin-7-yl)-4-(isopropylamino)pyridin-3-yl)-1,3,4-thiadiazol-2-yl)piperazin-1-yl)-8-oxooctanamido)-1-((S)-2-cyclohexyl-2-((S)-2-(methylamino)propanamido)acetyl)-N—((R)-1,2,3,4-tetrahydronaphthalen-1-yl)pyrrolidine-2-carboxamide]	1.9 nM	70%	422 nM	1.9 nM	70%	422 nM

Continued, values first:

IC50 (IRAK4 [1]; Table 5, multiple runs)	Dmax (IRAK4 [2]; [3])	DC50 (IRAK4 [2]; Table 5, multiple runs)	IC50 (IRAK4 [1]; Table 4)	Dmax (IRAK4 [2]; [4])	DC50 (IRAK4 [2]; Table 4)	Compound
1.2 nM	57%	70.7 nM	0.3 nM	57%	70.6 nM	CC(C)Nc1cc(-c2ccc3cc(C#N)cnn23)ncc1-c1nnc(N2CCN(CCCc3ccc4c(c3)CN(C3CCC(=O)NC3=O)C4=O)CC2)s1 (centres unmarked) [Example 27, 7-(5-(5-(4-(3-(2-(2,6-dioxopiperidin-3-yl)-1-oxoisoindolin-5-yl)propyl)piperazin-1-yl)-1,3,4-thiadiazol-2-yl)-4-(isopropylamino)pyridin-2-yl)pyrrolo[1,2-b]pyridazine-3-carbonitrile]
3.1 nM	61%	72.8 nM	–	–	–	CC(C)Nc1cc(-c2ccc3cc(C#N)cnn23)ncc1-c1nnc(N2CCC3(CCN(C(=O)CNc4cccc5c4C(=O)N(C4CCC(=O)NC4=O)C5=O)CC3)CC2)s1 (centres unmarked) [Example 82, 7-(5-(5-(9-((2-(2,6-dioxopiperidin-3-yl)-1,3-dioxoisoindolin-4-yl)glycyl)-3,9-diazaspiro[5.5]undecan-3-yl)-1,3,4-thiadiazol-2-yl)-4-(isopropylamino)pyridin-2-yl)pyrrolo[1,2-b]pyridazine-3-carbonitrile]
0.4 nM	77%	12.9 nM	–	–	–	CNc1cc(-c2ccc3cc(C#N)cnn23)ncc1-c1nnc([C@H]2CC[C@H](N(C)C[C@@H]3CCN(c4ccc5c(c4)C(=O)N(C4CCC(=O)NC4=O)C5=O)C3)CC2)s1 (stereo partly drawn) [Example 171, 7-(5-(5-((1S,4r)-4-((((3S)-1-(2-(2,6-dioxopiperidin-3-yl)-1,3-dioxoisoindolin-5-yl)pyrrolidin-3-yl)methyl)(methyl)amino)cyclohexyl)-1,3,4-thiadiazol-2-yl)-4-(methylamino)pyridin-2-yl)pyrrolo[1,2-b]pyridazine-3-carbonitrile]
1.1 nM	95%	73.5 nM	0.9 nM	95%	73.4 nM	CC(C)Nc1cc(-c2ccc3cc(C#N)cnn23)ncc1-c1nnc(N2CCC(NC(=O)C3CCN(Cc4ccc5c(c4)C(=O)N(C4CCC(=O)NC4=O)C5=O)CC3)CC2)s1 (centres unmarked) [Example 30, N-(1-(5-(6-(3-cyanopyrrolo[1,2-b]pyridazin-7-yl)-4-(isopropylamino)pyridin-3-yl)-1,3,4-thiadiazol-2-yl)piperidin-4-yl)-1-((2-(2,6-dioxopiperidin-3-yl)-1,3-dioxoisoindolin-5-yl)methyl)piperidine-4-carboxamide]
0.9 nM	87%	94.1 nM	0.9 nM	87%	94.2 nM	CC(C)Nc1cc(-c2ccc3cc(C#N)cnn23)ncc1-c1nnc(N2CCN(CCCCc3ccc4c(c3)CN(C3CCC(=O)NC3=O)C4=O)CC2)s1 (centres unmarked) [Example 26, 7-(5-(5-(4-(4-(2-(2,6-dioxopiperidin-3-yl)-1-oxoisoindolin-5-yl)butyl)piperazin-1-yl)-1,3,4-thiadiazol-2-yl)-4-(isopropylamino)pyridin-2-yl)pyrrolo[1,2-b]pyridazine-3-carbonitrile]
